Laboratory results as given in ChEMBL document CHEMBL1671854, “ramR mutations involved in efflux-mediated multidrug resistance in Salmonella enterica serovar Typhimurium” (2008).

How the values were obtained:
Assay type in all cases: functional, Salmonella enterica subsp. enterica serovar Typhimurium
[1] = test system: Salmonella typhimurium; assay: Antimicrobial activity against multidrug-resistant Salmonella enterica serovar Typhimurium 902SA92 harboring GyrA S83A and D87N, GyrB S464F and ParC S80I mutant genes by agar doubling dilution method
[2] = test system: Salmonella typhimurium; assay: Antimicrobial activity against multidrug-resistant Salmonella enterica serovar Typhimurium 902SA92 harboring plasmid encoded RamR gene, GyrA S83A and D87N, GyrB S464F and ParC S80I mutant genes by agar doubling dilution method
[3] = test system: Salmonella typhimurium; assay: Antimicrobial activity against ramA::kan-deficient Salmonella enterica serovar Typhimurium 902SA92 harboring GyrA S83A and D87N, GyrB S464F and ParC S80I mutant genes by agar doubling dilution method
[4] = test system: Salmonella typhimurium; assay: Antimicrobial activity against multidrug-resistant Salmonella enterica serovar Typhimurium 102SA00 harboring GyrA S83A and D87N, GyrB S464F and ParC S80I mutant genes by agar doubling dilution method
[5] = test system: Salmonella typhimurium; assay: Antimicrobial activity against multidrug-resistant Salmonella enterica serovar Typhimurium 102SA00 harboring plasmid encoded RamR gene, GyrA S83A and D87N, GyrB S464F and ParC S80I mutant genes by agar doubling dilution method
[6] = test system: Salmonella typhimurium; assay: Antimicrobial activity against ramA::kan-deficient Salmonella enterica serovar Typhimurium 102SA00 harboring GyrA S83A and D87N, GyrB S464F and ParC S80I mutant genes by agar doubling dilution method
[7] = test system: Salmonella typhimurium; assay: Antimicrobial activity against multidrug-resistant Salmonella enterica serovar Typhimurium BN10055 harboring GyrA S83Y mutant gene by agar doubling dilution method
[8] = test system: Salmonella typhimurium; assay: Antimicrobial activity against multidrug-resistant Salmonella enterica serovar Typhimurium BN10055 harboring plasmid encoded RamR gene, GyrA S83Y mutant gene by agar doubling dilution method
[9] = test system: Salmonella typhimurium; assay: Antimicrobial activity against ramA::kan-deficient Salmonella enterica serovar Typhimurium BN10055 harboring GyrA S83Y mutant gene by agar doubling dilution method
[10] = test system: Salmonella typhimurium; assay: Antimicrobial activity against multidrug-resistant Salmonella enterica serovar Typhimurium 543SA98 harboring GyrA […] mutant gene by agar doubling dilution method
[11] = test system: Salmonella typhimurium; assay: Antimicrobial activity against multidrug-resistant Salmonella enterica serovar Typhimurium 543SA98 harboring plasmid encoded RamR gene, GyrA S83Y mutant gene by agar doubling dilution method
[12] = test system: Salmonella typhimurium; assay: Antimicrobial activity against ramA::kan-deficient Salmonella enterica serovar Typhimurium 543SA98 harboring GyrA S83Y mutant gene by agar doubling dilution method
[13] = test system: Salmonella typhimurium; assay: Antimicrobial activity against multidrug-resistant Salmonella enterica serovar Typhimurium BN9945 by agar doubling dilution method
[14] = test system: Salmonella typhimurium; assay: Antimicrobial activity against multidrug-resistant Salmonella enterica serovar Typhimurium BN9945 harboring plasmid encoded RamR gene by agar doubling dilution method
[15] = test system: Salmonella typhimurium; assay: Antimicrobial activity against ramA::kan-deficient Salmonella enterica serovar Typhimurium BN9945 by agar doubling dilution method
[16] = test system: Salmonella typhimurium; assay: Antimicrobial activity against multidrug-resistant Salmonella enterica serovar Typhimurium BN9181 by agar doubling dilution method
[17] = test system: Salmonella typhimurium; assay: Antimicrobial activity against multidrug-resistant Salmonella enterica serovar Typhimurium BN9181 harboring plasmid encoded RamR gene by agar doubling dilution method
[18] = test system: Salmonella typhimurium; assay: Antimicrobial activity against ramA::kan-deficient Salmonella enterica serovar Typhimurium BN9181 by agar doubling dilution method
[19] = test system: Salmonella typhimurium; assay: Antimicrobial activity against Salmonella enterica serovar Typhimurium S/921495 by agar doubling dilution method
[20] = test system: Salmonella typhimurium; assay: Antimicrobial activity against marR::kan-deficient Salmonella enterica serovar Typhimurium S/921495 by agar doubling dilution method
[21] = test system: Salmonella typhimurium; assay: Antimicrobial activity against marR-deficient Salmonella enterica serovar Typhimurium S/921495 by agar doubling dilution method
[22] = test system: Salmonella typhimurium; assay: Antimicrobial activity against marA::kan-deficient Salmonella enterica serovar Typhimurium S/921495 by agar doubling dilution method
[23] = test system: Salmonella typhimurium; assay: Antimicrobial activity against soxR::kan-deficient Salmonella enterica serovar Typhimurium S/921495 by agar doubling dilution method
[24] = test system: Salmonella typhimurium; assay: Antimicrobial activity against soxS::kan-deficient Salmonella enterica serovar Typhimurium S/921495 by agar doubling dilution method
[25] = test system: Salmonella typhimurium; assay: Antimicrobial activity against Salmonella enterica serovar Typhimurium S/921495 harboring plasmid encoded RamR gene by agar doubling dilution method
[26] = test system: Salmonella typhimurium; assay: Antimicrobial activity against ramR-deficient Salmonella enterica serovar Typhimurium S/921495 harboring plasmid encoded RamR gene by agar doubling dilution method
[27] = test system: Salmonella typhimurium; assay: Antimicrobial activity against ramA::kan-deficient Salmonella enterica serovar Typhimurium S/921495 by agar doubling dilution method
[28] = test system: Salmonella typhimurium; assay: Antimicrobial activity against Salmonella enterica serovar Typhimurium BN18 by agar doubling dilution method
[29] = test system: Salmonella typhimurium; assay: Antimicrobial activity against Salmonella enterica serovar Typhimurium BN18 harboring plasmid encoded RamR gene by agar doubling dilution method
[30] = test system: Salmonella typhimurium; assay: Antimicrobial activity against ramA::kan-deficient Salmonella enterica serovar Typhimurium BN18 by agar doubling dilution method
[31] = test system: Salmonella typhimurium; assay: Antimicrobial activity against Salmonella enterica serovar Typhimurium BN18/21 by agar doubling dilution method
[32] = test system: Salmonella typhimurium; assay: Antimicrobial activity against Salmonella enterica serovar Typhimurium BN18/21 harboring plasmid encoded RamR gene by agar doubling dilution method
[33] = test system: Salmonella typhimurium; assay: Antimicrobial activity against ramA::kan-deficient Salmonella enterica serovar Typhimurium BN18/21 by agar doubling dilution method
[34] = test system: Salmonella typhimurium; assay: Antimicrobial activity against Salmonella enterica serovar Typhimurium BN18/41 harboring GyrA G81C,acrR mutant genes by agar doubling dilution method
[35] = test system: Salmonella typhimurium; assay: Antimicrobial activity against Salmonella enterica serovar Typhimurium BN18/41 harboring plasmid encoded RamR gene, GyrA G81C,acrR mutant genes by agar doubling dilution method
[36] = test system: Salmonella typhimurium; assay: Antimicrobial activity against ramA::kan-deficient Salmonella enterica serovar Typhimurium BN18/41 harboring plasmid encoded RamR gene, GyrA G81C,acrR mutant genes by agar doubling dilution method
[37] = test system: Salmonella typhimurium; assay: Antimicrobial activity against Salmonella enterica serovar Typhimurium BN18/71 harboring GyrA G81C, acrR mutant genes by agar doubling dilution method
[38] = test system: Salmonella typhimurium; assay: Antimicrobial activity against Salmonella enterica serovar Typhimurium BN18/71 harboring plasmid encoded RamR gene, GyrA G81C,acrR mutant genes by agar doubling dilution method
[39] = test system: Salmonella typhimurium; assay: Antimicrobial activity against ramA::kan-deficient Salmonella enterica serovar Typhimurium BN18/71 harboring plasmid encoded RamR gene, GyrA G81C,acrR mutant genes by agar doubling dilution method
[40] = test system: Salmonella typhimurium; assay: Antimicrobial activity against ramR::kan-deficient Salmonella enterica serovar Typhimurium S/921495 by agar doubling dilution method
[41] = test system: Salmonella typhimurium; assay: Antimicrobial activity against ramR-deficient Salmonella enterica serovar Typhimurium S/921495 by agar doubling dilution method

Measured: MIC

O=C(N[C@H](CO)[C@H](O)c1ccc([N+](=O)[O-])cc1)C(Cl)Cl [CHLORAMPHENICOL]
128 µg/mL: [9] | [11] | [12] | [14] | [15] | [16] | [17] | [18]
32 µg/mL: [34]
256 µg/mL: [2] | [3] | [5] | [6]
1020 µg/mL: [1] | [7] | [8]
64 µg/mL: [37]
16 µg/mL: [31] | [35] | [36] | [38] | [39] | [40] | [41]
4 µg/mL: [19] | [20] | [21] | [22] | [23] | [24] | [25] | [26] | [27] | [28] | [29] | [30] | [32] | [33]
512 µg/mL: [4] | [10] | [13]
